Data: patent publication US11931397B2, “Methods and compositions for the treatment of Sengers syndrome” (Stealth BioTherapeutics Inc., priority 2018, dated 2024)
Where a SMILES comes first, the peptide text is derived from it. Where no end group is shown, it is not given here. [ ]: non-standard residue; d: D form. Dmt = Cc1cc(O)cc(C)c1C[C@H](N)C(=O)O

Key:
[1] = tested on: patient with a homozygous AGK founder mutation (Sengers syndrome); settings: approximately six months, 0.25 then 0.50 mg/kg/day intravenous
Procedure: The patient was treated with D-Arg-2′6′-Dmt-Lys-Phe-NH2 for approximately six months through a compassionate care protocol.

mu-opioid receptor = mu-opioid receptor (Homo sapiens, UniProt P35372); assay: Mu-opioid receptor agonist activity (stated, no test described); settings: statement of the description, no test given
[2] = tested on: several mammalian cell types; settings: cited from earlier work

Chain of mu-opioid receptor (P35372 whole entry, species assumed): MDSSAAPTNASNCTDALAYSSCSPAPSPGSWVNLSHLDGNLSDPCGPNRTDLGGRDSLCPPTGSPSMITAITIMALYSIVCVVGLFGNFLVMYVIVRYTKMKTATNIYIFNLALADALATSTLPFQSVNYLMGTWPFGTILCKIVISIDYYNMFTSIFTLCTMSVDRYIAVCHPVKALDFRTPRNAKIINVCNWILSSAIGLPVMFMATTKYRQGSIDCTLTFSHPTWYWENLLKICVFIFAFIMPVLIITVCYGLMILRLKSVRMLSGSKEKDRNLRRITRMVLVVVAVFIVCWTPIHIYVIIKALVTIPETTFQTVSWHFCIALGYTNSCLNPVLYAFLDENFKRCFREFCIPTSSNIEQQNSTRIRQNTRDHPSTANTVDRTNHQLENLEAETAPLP

Row | Molecule | mu-opioid receptor agonist activity (mu-opioid receptor) | other results
1 | Cc1cc(O)cc(C)c1C[C@H](NC(=O)[C@H](N)CCCNC(=N)N)C(=O)N[C@@H](CCCCN)C(=O)N[C@@H](Cc1ccccc1)C(N)=O [D-Arg-2′6′-Dmt-Lys-Phe-NH2] (H-[dR][Dmt]KF-NH2) |  | Side effects attributable to treatment [1]: no discernable side effects
2 | Tyr-D-Arg-Phe-Lys-NH2 | has mu-opioid receptor agonist activity | 
3 | F[dR]FK-NH2 | does not have mu-opioid receptor agonist activity | 
4 | 2′, 6′-Dmt-D-Arg-Phe-Lys-NH2 |  | Penetration of the plasma membrane [2]: readily penetrates the plasma membrane of several mammalian cell types in an energy-independent manner
